Experiments:
[1] = system: BRAF^V600E CRC cell lines; assay: Cell viability assays, drug combinations, shift in vemurafenib sensitivity and combination index; type: cell-based; settings: FIG. 5C
Method: To assess the growth/survival response of cell lines to single or combinatorial drug treatments, we used CellTiter-Glo cell viability assay (Promega; cat #G7571). Cell culture and luminescence readouts were performed in 96- and 384-well plates after 3-day treatments.
To calculate CI values in FIGS. 2A, 2B, 2E, FIGS. 5C, 5E, 5G and FIG. 6A, we applied the Bliss Independence model (54,55), which uses experimental profiles and avoids inaccuracies that commonly occur with dose-effect curve estimation approaches. CI is calculated as CI=−log 2 (Eab/(Ea*Eb)), where Ea and Eb correspond to the effects of drugs a and b alone at a given concentration, and Eab corresponds to the combined effects of drugs a and b at these same concentrations. In this model, CI>0 indicates synergistic effect, CI=0 indicates additivity effect, CI<0 indicates antagonistic effect.
To compare the effects of triple versus dual drug combinations in FIG. 3B, we calculated CI as follow: CI=−log 2 (Eabc/(Ea*Eb)), where Ea and Eb correspond to the effects of drugs a/VEM, b/GEF alone at a given concentration, and Eabc corresponds to the combined effects of drugs a and b at these same concentrations combined with a third drug (c/DAS) at the cell line-specific GI50 of DAS.

SFK = assay: Western blot of SFK activation (Y419 phosphorylation); type: cell-based; settings: BRAF^V600E CRC cell lines
Method: (§1) For samples to be analyzed with the HT-KAM platform, cells at ˜85% confluency were washed three times with cold PBS and lysed with freshly prepared 1× cell lysis buffer (1 ml per 2.5×10^6 cells) (lOX Cell Lysis Buffer, Cell Signaling; cat. #9803) complemented with 1× of Halt Protease & Phosphatase (100×, ThermoScientific; cat. #1861281). Cell lysates were collected and spun down at 14,000 rpm for 15 min at 4° C. and supernatants stored at −80° C. For samples to be analyzed by western blot, cell lysates were prepared with RIPA lysis buffer (150 mM NaCl, 0.1% SDS, 1% Nonidet P40, 1% sodium deoxycholate and 10 mM sodium phosphate, pH 7.2) supplemented with protease and phosphatase inhibitors. After clearing by centrifugation at 12,000 rpm for 10 minutes at 4° C., the lysates were analyzed as described in the respective experiments.
(§2) For western-blot, samples were denatured by boiling in 1× Laemmli buffer and run on an 8% SDS-PAGE gel. After transfer onto a PVDF membrane and blocking with 3% BSA, the membranes were incubated with primary antibodies overnight at 4° C., washed 3 times with TBST (Tris-buffered saline containing 0.05% Tween-20), incubated with secondary antibodies for 1 hour at room temperature and developed using chemoluminescence (cat #32209 from Pierce).
Antibodies anti-HSP90 was procured from Santa Cruz Biotechnologies (H-114, cat #7947). […]

[2] = system: beta-catenin (CTNNB1) Y654; assay: Western blot of beta-catenin Y654 phosphorylation; type: cell-based; settings: BRAF^V600E CRC cell lines, FIG. 4A, 11C, 12A
Method: as §1, §2

VACO432 = assay: Cell viability assay (CellTiter-Glo), GI50, 3-day treatment; type: cell-based; settings: 72 h; VACO432 (BRAF^V600E CRC); 50% growth inhibition after 3 days of treatment compared to control; read-out: GI50 concentrations
Method: (§3) To assess the growth/survival response of cell lines to single or combinatorial drug treatments, we used CellTiter-Glo cell viability assay (Promega; cat #G7571). Cell culture and luminescence readouts were performed in 96- and 384-well plates after 3-day treatments. GI50 corresponds to the concentration of a given drug that causes 50% inhibition of cell growth (GI50). The effects of drug combinations on cell growth were assessed by calculating fold change in VEM-sensitivity and combination index (C.I.) that were experimentally measured from ≥9 individual datapoints around drugs' GI50, i.e. at GI50, 0.5×GI50, 2×GI50 concentrations of each drug per drug combination experiment. To address the particular effects of some drug treatments on some cell lines, the choice of experimental datapoints centered around drugs' GI50 effects was adjusted by including individual datapoints ranging from ≥GI25 to ≤GI75, leading to calculate fold change in VEM-sensitivity and combination index (C.I.) from 12 to 20 individual datapoints, as previously explained (7).

RKO1 = assay: as above; type: cell-based; settings: 72 h; RKO1 (BRAF^V600E CRC); 50% growth inhibition after 3 days of treatment compared to control; read-out: GI50 concentrations
Method: as §3

A375 = assay: as above; type: cell-based; settings: Homo sapiens, A-375, 72 h; A375 (BRAF^V600E melanoma); 50% growth inhibition after 3 days of treatment compared to control; read-out: GI50 concentrations
Method: as §3

LIM2405 = assay: as above; type: cell-based; settings: 72 h; LIM2405 (BRAF^V600E CRC); 50% growth inhibition after 3 days of treatment compared to control; read-out: GI50 concentrations
Method: as §3

SNUC5 = assay: as above; type: cell-based; settings: 72 h; SNUC5 (BRAF^V600E CRC); 50% growth inhibition after 3 days of treatment compared to control; read-out: GI50 concentrations
Method: as §3

HT29 = assay: as above; type: cell-based; settings: Homo sapiens, HT-29, 72 h; HT29 (BRAF^V600E CRC); 50% growth inhibition after 3 days of treatment compared to control; read-out: GI50 concentrations
Method: as §3

LS411N = assay: as above; type: cell-based; settings: Homo sapiens, LS-411N, 72 h; LS411N (BRAF^V600E CRC); 50% growth inhibition after 3 days of treatment compared to control; read-out: GI50 concentrations
Method: as §3

KM20 = assay: as above; type: cell-based; settings: 72 h; KM20 (BRAF^V600E CRC); 50% growth inhibition after 3 days of treatment compared to control; read-out: GI50 concentrations
Method: as §3

Sk-Mel-28 = assay: as above; type: cell-based; settings: Homo sapiens, 72 h; Sk-Mel-28 (BRAF^V600E melanoma); 50% growth inhibition after 3 days of treatment compared to control; read-out: GI50 concentrations
Method: as §3

WiDr = assay: as above; type: cell-based; settings: Homo sapiens, 72 h; WiDr (BRAF^V600E CRC); 50% growth inhibition after 3 days of treatment compared to control; read-out: GI50 concentrations
Method: as §3

OUMS23 = assay: as above; type: cell-based; settings: OUMS-23, 72 h; OUMS23 (CRC MAP3K8^amp); 50% growth inhibition after 3 days of treatment compared to control; read-out: GI50 concentrations
Method: as §3

SRC = assay: Automated IHC of active and total SRC in PDX tumors; type: in vivo, mice; settings: both PDX models after 3 or 21 days of treatment; FIGS. 1E, 1F, 8B, 8C
Method: Primary antibody was diluted in Discovery Ab Diluent.
To detect phospho-Y419 SRC, phospho-Src (Y419) […] rabbit polyclonal supplied by R&D Systems (Cat #AF2685) was used at a titration of 1:50. […] Inhibitor was applied for 16 min.
To detect total SRC, TOTAL SRC (36D1) rabbit monoclonal manufactured by Cell Signaling Technology (Cat #2109) was used at a titration of 1:800. […] Inhibitor was applied for 16 minutes.

Compound: CCCCC[C@H](O)/C=C/[C@H]1[C@H](O)CC(=O)[C@@H]1C/C=C\CCCC(=O)O [PGE2, Prostaglandin E2]
- increase in resistance to vemurafenib ([1]; BRAF^V600E CRC cells treated with PGE2, 3-day cell viability assays): 2 to 4 fold
- CI scores ([1]; PGE2 with vemurafenib in BRAF^V600E CRC cells, Bliss model): antagonism
- SFK activation (phosphorylation of Y419) (SFK): increase in SFK activation
- phosphorylation of beta-catenin (CTNNB1) at Y654 [2]: increase in phosphorylation

Compound: Cc1nc(Nc2ncc(C(=O)Nc3c(C)cccc3Cl)s2)cc(N2CCN(CCO)CC2)n1 [dasatinib, N-(2-chloro-6-mnethylphenyl)-2-[[6-[4-(2-hydroxyethyl)piperazin-1-yl]-2-methylpyrimidin-4-yl]amino]-1,3-thiazole-5-carboxamide]
- GI50 (VACO432): 2 µM
- GI50 (RKO1): 10 µM
- GI50 (A375): 3.5 µM
- GI50 (LIM2405): 1.5 µM
- GI50 (SNUC5): 6.5 µM
- GI50 (HT29): 8 µM
- GI50 (LS411N): 3 µM
- GI50 (KM20): 0.8 µM
- GI50 (Sk-Mel-28): 6.5 µM
- GI50 (WiDr): 0.9 µM
- GI50 (OUMS23): 1.9 µM

Compound: COc1cc2ncnc(Nc3ccc(F)c(Cl)c3)c2cc1OCCCN1CCOCC1 [gefitinib, N-(3-chloro-4-fluorophenyl)-7-methoxy-6-(3-morpholin-4-ylpropoxy)quinazolin-4-amine]
- GI50 (VACO432): 7.5 µM
- GI50 (RKO1): 40 µM
- GI50 (A375): 30 µM
- GI50 (LIM2405): 30 µM
- GI50 (SNUC5): 30 µM
- GI50 (HT29): 25 µM
- GI50 (LS411N): 30 µM
- GI50 (KM20): 20 µM
- GI50 (Sk-Mel-28): 20 µM
- GI50 (WiDr): 10 µM
- GI50 (OUMS23): 40 µM

Compound: CC(C)(C)c1nc(-c2cccc(NS(=O)(=O)c3c(F)cccc3F)c2F)c(-c2ccnc(N)n2)s1 [dabrafenib, N-[3-[5-(2-Amino-4-pyrimidinyl)-2-(2-methyli-2-propanyl)-1,3-tliazol-4-yl]-2-fluorophenyl]-2,6-difluorobenzenesulfonarmide]
- active and total SRC (IHC) (SRC): statistically significant increases

Compound: CC(=O)Nc1cccc(-n2c(=O)n(C3CC3)c(=O)c3c(Nc4ccc(I)cc4F)n(C)c(=O)c(C)c32)c1 [trametinib, N-[3-[3-cyclopropyl-5-(2-fluoro-4-iodoanilino)-6,8-dimethyl-2,4,7-trioxopyrido[4,3-d]pyrimidin-1-yl]phenyl]acetamide]
- active and total SRC (IHC) (SRC): statistically significant increases
